Reference: ChEMBL document CHEMBL4265952, “One-pot, multi-component synthesis and structure-activity relationships of peptoid-based histone deacetylase (HDAC) inhibitors targeting malaria parasites” (Eur J Med Chem, 2018)
Blank lines part the entries; values can stand above or below the molecule they belong to.

Key:
[1] = target: Histone deacetylase 1 (Homo sapiens, UniProt Q13547); assay: Inhibition of recombinant full length human C-terminal His/FLAG tagged HDAC1 expressed in baculovirus infected Sf9 insect cells using ZMAL as substrate measured after 90 mins by fluorescence assay
Histone deacetylase 1, sequence (Q13547 whole entry, the tested form may be a part): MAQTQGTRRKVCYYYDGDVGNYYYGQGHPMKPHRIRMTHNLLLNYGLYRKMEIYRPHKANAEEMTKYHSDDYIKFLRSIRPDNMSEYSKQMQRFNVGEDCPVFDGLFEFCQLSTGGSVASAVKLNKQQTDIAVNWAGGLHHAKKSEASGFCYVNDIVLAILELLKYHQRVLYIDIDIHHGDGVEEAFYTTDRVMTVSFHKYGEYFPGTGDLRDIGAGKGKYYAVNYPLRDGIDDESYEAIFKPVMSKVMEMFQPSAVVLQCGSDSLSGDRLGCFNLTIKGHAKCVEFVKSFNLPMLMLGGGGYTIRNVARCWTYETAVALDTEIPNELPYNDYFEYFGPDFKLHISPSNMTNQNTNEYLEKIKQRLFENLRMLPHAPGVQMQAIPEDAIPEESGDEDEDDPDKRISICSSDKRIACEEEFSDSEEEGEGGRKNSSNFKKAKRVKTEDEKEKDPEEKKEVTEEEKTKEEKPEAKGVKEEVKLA

[2] = Selectivity index, ratio of IC50 for human HepG2A16 cells to IC50 for exo-erythrocytic stage of GFP-Luc-fused Plasmodium berghei ANKA infected in human HepG2 cells
[3] = Cytotoxicity against human HepG2A16 cells expressing GFP-fused CD81 after 48 hrs by bioluminescence assay; conditions: HepG2A16, 48 h
[4] = system: Plasmodium berghei; assay: Antiplasmodial activity against exo-erythrocytic stage of GFP-Luc-fused Plasmodium berghei ANKA infected in human HepG2 cells after 48 hrs by bioluminescence assay; conditions: HepG2, 48 h
[5] = system: Plasmodium falciparum; assay: Gametocytocidal activity against synchronized Plasmodium falciparum NF54 mature stage 5 gametocytes after 48 hrs by ATP bioluminescence assay; type: functional, organism-based; conditions: NF54, 48 h
[6] = target: T1, Protein deacetylase HDAC6 (Homo sapiens, UniProt Q9UBN7); assay: Inhibition of recombinant full length human N-terminal GST-tagged HDAC6 expressed in baculovirus infected Sf9 insect cells using ZMAL as substrate measured after 90 mins by fluorescence assay
T1 sequence (Q9UBN7 whole entry): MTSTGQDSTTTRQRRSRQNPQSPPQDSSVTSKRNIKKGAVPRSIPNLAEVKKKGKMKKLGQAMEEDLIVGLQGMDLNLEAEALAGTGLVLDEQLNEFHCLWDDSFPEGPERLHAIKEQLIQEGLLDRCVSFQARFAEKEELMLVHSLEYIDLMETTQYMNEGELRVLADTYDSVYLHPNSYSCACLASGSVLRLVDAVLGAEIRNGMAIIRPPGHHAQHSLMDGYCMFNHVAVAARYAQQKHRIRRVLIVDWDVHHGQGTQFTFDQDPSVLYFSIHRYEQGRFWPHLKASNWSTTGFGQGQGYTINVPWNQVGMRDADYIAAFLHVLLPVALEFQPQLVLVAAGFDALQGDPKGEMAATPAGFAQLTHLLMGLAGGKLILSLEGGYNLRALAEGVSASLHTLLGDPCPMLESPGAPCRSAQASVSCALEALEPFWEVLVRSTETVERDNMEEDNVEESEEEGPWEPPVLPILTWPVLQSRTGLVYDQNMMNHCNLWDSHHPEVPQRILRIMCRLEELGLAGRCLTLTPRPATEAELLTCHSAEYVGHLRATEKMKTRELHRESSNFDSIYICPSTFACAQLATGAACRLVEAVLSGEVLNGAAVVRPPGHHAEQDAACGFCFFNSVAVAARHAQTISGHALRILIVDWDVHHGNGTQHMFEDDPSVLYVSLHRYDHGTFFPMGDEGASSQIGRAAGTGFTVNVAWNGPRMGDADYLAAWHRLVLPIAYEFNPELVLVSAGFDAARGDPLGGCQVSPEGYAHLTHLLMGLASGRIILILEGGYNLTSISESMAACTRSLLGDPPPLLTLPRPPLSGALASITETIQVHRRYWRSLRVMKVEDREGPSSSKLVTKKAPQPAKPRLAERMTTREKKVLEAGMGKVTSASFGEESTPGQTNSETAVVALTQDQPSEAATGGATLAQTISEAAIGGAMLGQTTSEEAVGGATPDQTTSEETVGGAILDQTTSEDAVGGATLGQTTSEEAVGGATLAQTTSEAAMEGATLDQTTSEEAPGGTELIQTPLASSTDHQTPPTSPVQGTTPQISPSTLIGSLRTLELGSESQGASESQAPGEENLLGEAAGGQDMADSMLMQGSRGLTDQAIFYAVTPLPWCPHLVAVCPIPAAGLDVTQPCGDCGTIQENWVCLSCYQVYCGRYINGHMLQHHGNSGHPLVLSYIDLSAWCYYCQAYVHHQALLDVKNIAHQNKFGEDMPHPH

[7] = system: Plasmodium falciparum; type: functional, organism-based; conditions: 3D7
[8] = system: HEK293; assay: Cytotoxicity against HEK293 cells after 48 hrs by resazurin dye based assay; type: ADME, cell-based; conditions: Homo sapiens, HEK293, 48 h
[9] = system: NFF; type: ADME, cell-based; conditions: Homo sapiens, 72 h
[10] = system: Plasmodium falciparum; type: functional, organism-based; conditions: Dd2
[11] = system: Plasmodium falciparum; assay: Gametocytocidal activity against transgenic GFP-fused Plasmodium falciparum NF54 early stage gametocytes after 72 hrs by Mitotracker Red CMH2XRos staining based imaging method; type: functional, organism-based; conditions: NF54, 72 h
[12] = system: Plasmodium falciparum; assay: Gametocytocidal activity against transgenic GFP-fused Plasmodium falciparum NF54 late stage gametocytes after 72 hrs by Mitotracker Red CMH2XRos staining based imaging method; type: functional, organism-based; conditions: NF54, 72 h
[13] = system: Plasmodium falciparum; assay: Antiplasmodial activity against Plasmodium falciparum
[14] = in vitro; conditions: human
Description: Selectivity index, ratio of IC50 for human NFF cells to IC50 for multidrug-resistant asexual ring stage Plasmodium falciparum Dd2 infected in human erythrocytes

[15] = system: NFF; assay: cells; conditions: Homo sapiens
Description: Cytotoxicity against human NFF cells

[16] = system: Plasmodium falciparum; assay: microbe, parasite or virus in culture; conditions: Dd2, 3 h
Description: Antiplasmodial activity against multidrug-resistant asexual ring stage Plasmodium falciparum Dd2 infected in human erythrocytes by [3H]-hypoxanthine incorporation assay

[17] = system: Plasmodium falciparum; assay: microbe, parasite or virus in culture; conditions: 3D7, 3 h
Description: Antiplasmodial activity against drug-sensitive asexual ring stage Plasmodium falciparum 3D7 infected in human erythrocytes by [3H]-hypoxanthine incorporation assay

[18] = in vitro; conditions: human; remark: listed apart in the source
Description: Selectivity index, ratio of IC50 for human NFF cells to IC50 for drug-sensitive asexual ring stage Plasmodium falciparum 3D7 infected in human erythrocytes

[19] = system: Plasmodium falciparum; assay: Gametocytocidal activity against transgenic GFP-fused Plasmodium falciparum NF54 late stage gametocytes at 40 uM after 72 hrs by Mitotracker Red CMH2XRos staining based imaging method relative to control; type: functional

Structure (SMILES): Cc1ccc(C(=O)N(CC(=O)NC2CCCCC2)Cc2ccc(C(=O)NO)cc2)cc1C
IC50 [1]: 304 nM

IC50 [4]: 0.014 nM
Structure (SMILES): O=C1C(O)=C([C@H]2CC[C@H](c3ccc(Cl)cc3)CC2)C(=O)c2ccccc21 [ATOVAQUONE]
selectivity ratio [2]: > 35000
IC50 [3]: > 500 nM

Structure (SMILES): CC[C@H](C)[C@H](NC(=O)[C@H]([C@@H](C)CC)N(C)C(C)=O)C(=O)N[C@H](C(=O)N[C@@H](CC(C)C)C(=O)[C@@]1(C)CO1)[C@@H](C)O [EPOXOMYCIN]
IC50 [5]: 7 nM

Structure (SMILES): CC(C)c1ccc(C(=O)N(CC(=O)NC2CCCCC2)Cc2ccc(C(=O)NO)cc2)cc1
IC50 [1]: 86 nM
IC50 [6]: 64 nM

IC50 [7]: 10 to 30 nM
IC50 [9]: 70 to 180 nM
IC50 [10]: 10 to 30 nM
Structure (SMILES): Cc1[nH]c2ccccc2c1CCNCc1ccc(/C=C/C(=O)NO)cc1 [PANOBINOSTAT]
IC50 [8]: 70 to 180 nM

IC50 [7]: 60 to 130 nM
IC50 [9]: 1420 to 2370 nM
IC50 [10]: 60 to 130 nM
Structure (SMILES): O=C(/C=C/c1cccc(S(=O)(=O)Nc2ccccc2)c1)NO [BELINOSTAT]
IC50 [8]: 1420 to 2370 nM

Structure (SMILES): COc1ccc2nc3cc(Cl)ccc3c(Nc3cc(CN4CCCC4)c(O)c(CN4CCCC4)c3)c2n1 [PYRONARIDINE]
IC50 [11]: 29 nM
IC50 [12]: 1710 nM

Structure (SMILES): CN(C)c1ccc2nc3ccc(N(C)C)cc3[s+]c2c1 [METHYLENE BLUE ANHYDROUS]
IC50 [5]: 480 nM

IC50 [13]: 8 to 11 nM
Structure (SMILES): CC(/C=C/C(=O)NO)=C\[C@@H](C)C(=O)c1ccc(N(C)C)cc1 [TRICHOSTATIN]

Structure (SMILES): Cc1ccc(NC(=O)CN(Cc2ccc(C(=O)NO)cc2)C(=O)c2cccc3ccccc23)cc1
selectivity ratio [14]: 256 to 303
IC50 [15]: > 10000 nM
IC50 [16]: 33 nM
IC50 [17]: 39 nM
selectivity ratio [18]: 256 to 303

Structure (SMILES): CCCCNC(=O)CN(Cc1ccc(C(=O)NO)cc1)C(=O)c1ccc(N(C)C)cc1
IC50 [1]: 40 nM
IC50 [6]: 35 nM

Structure (SMILES): Cc1ccc(NC(=O)CN(Cc2ccc(C(=O)NO)cc2)C(=O)c2cc(C)cc(C)c2)cc1
IC50 [15]: > 10000 nM
IC50 [16]: 27 nM
IC50 [11]: 7600 nM
IC50 [12]: 7280 nM
IC50 [3]: 21400 nM
IC50 [4]: 5550 nM
IC50 [5]: 10100 nM

Structure (SMILES): Cc1ccc(NC(=O)CN(Cc2ccc(C(=O)NO)cc2)C(=O)c2ccc(N(C)C)cc2)cc1
IC50 [1]: 80 nM

Structure (SMILES): O=C(CN(Cc1ccc(C(=O)NO)cc1)C(=O)c1cccc2ccccc12)NC1CCCCC1
IC50 [1]: 552 nM

Structure (SMILES): Cc1ccc(C(=O)N(CC(=O)NC(C)(C)C)Cc2ccc(C(=O)NO)cc2)cc1C
IC50 [1]: 428 nM
Activity [19]: 92%
IC50 [6]: 57 nM
